According to US20190315823A1, “SMALL CATIONIC ANTI-BIOFILM AND IDR PEPTIDES” (priority 2013, published 2019):
“And” between values parts separate entries of the source, which are not always exact repeats. Equal values may be shown once. Read-outs that look alike come from different tables or passages of the source. Peptide text beside a SMILES is read from it.

Tests used:
[1] = test system: human peripheral blood mononuclear cells (MCP-1); assay: MCP-1 chemokine production by ELISA; format: cell-based; conditions: 24 hours of stimulation; lowest peptide concentration 20 μg/ml
Protocol: FIG. 19. High production of anti-infective chemokine MCP-1 by human peripheral blood mononuclear cells treated with peptides, as determined by ELISA after 24 hours of stimulation.
Venous blood (20 ml) from healthy volunteers was collected in Vacutainer® collection tubes containing sodium heparin as an anticoagulant (Becton Dickinson, Mississauga, ON) in accordance with UBC ethical approval and guidelines. Blood was diluted 1:1 with complete RPMI 1640 medium and separated by centrifugation over a Ficoll-Paque® Plus (Amersham Biosciences, Piscataway, N.J., USA) density gradient. White blood cells were isolated from the buffy coat, washed twice in RPMI 1640 complete medium, and the number of peripheral blood mononuclear cells (PBMC) was determined by Trypan blue exclusion. PBMC (5×10^5) were seeded into 12-well tissue culture dishes (Falcon; Becton Dickinson) at 0.75 to 1×10^6 cells/ml at 37° C. in 5% CO2. The above conditions were chosen to mimic conditions for circulating blood monocytes entering tissues at the site of infection via extravasation.
Following incubation of the cells under various treatment regimens, the tissue culture supernatants were centrifuged at 1000×g for 5 min, then at 10,000×g for 2 min to obtain cell-free samples. Supernatants were aliquoted and then stored at −20° C. prior to assay for various chemokines by capture ELISA (eBioscience and BioSource International Inc., CA, USA respectively)

[2] = test system: human PBMC (MCP-1); assay: synergy with poly(I:C) to increase MCP-1 production; format: cell-based; conditions: 10 μg/ml peptide with 20 μg/ml poly(I:C)
Protocol: FIG. 21. Ability of 10 μg/ml of peptides in combination with 20 or 5 μg/ml of the known adjuvant poly inosine:cytosine [poly(I:C)] to synergize to increase MCP-1 production, a known adjuvant property [see Kindrachuk, J., H. Jenssen, M. Elliott, R. Townsend, A. Nijnik, S. F. Lee, V. Gerdts, L. A. Babiuk, S. A. Halperin and R. E. W. Hancock. 2009. A novel vaccine adjuvant comprised of a synthetic innate defence regulator peptide and CpG oligonucleotide links innate and adaptive immunity. Vaccine 27:4662-4671].
It is well accepted that vaccine immunization is best achieved by co-adminstration of an adjuvant. The precise mechanism by which these adjuvants work has eluded immunologists but appears to work in part by upregulating elements of innate immunity that smooth the transition to adaptive (antigen-specific) immunity (Bendelac A and R. Medzhitov. 2002. Adjuvants of immunity: Harnessing innate immunity to promote adaptive immunity J. Exp. Med. 195:F19-F23). Within this concept there are several possible avenues by which adjuvants might work including the attraction of immune cells into the site at which a particular antigen is injected, through e.g. upregulation of chemokines, the appropriate activation of cells when they reach that site, which can be caused by local cell or tissue damage releasing endogenous adjuvants or through specific cell activation by the adjuvants, and the compartmentalization of immune responses to the site of immunization (the so-called “depot” effect). […] 2010. Immunomodulators as adjuvants for vaccines and antimicrobial therapy. Ann. NY Acad. Sci. 1213:46-61].

[3] = test system: human PBMC (TNFα); assay: LPS-induced TNFα production by ELISA; format: cell-based; conditions: P. aeruginosa LPS, 24 hr
Protocol: FIG. 20. Ability of peptides to knockdown pro-inflammatory cytokine TNFα production by human PBMCs in response to bacterial LPS treatment as determined by ELISA after 24 hours.
LPS from P. aeruginosa strain H103 was highly purified free of proteins and lipids using the Darveau-Hancock method. Briefly, P. aeruginosa was grown overnight in LB broth at 37° C. Cells were collected and washed and the isolated LPS pellets were extracted with a 2:1 chloroform:methanol solution to remove contaminating lipids. Purified LPS samples were quantitated using an assay for the specific sugar 2-keto-3-deoxyoctosonic acid (KDO assay) and then resuspended in endotoxin-free water (Sigma-Aldrich).
Human PBMC were obtained as described above and treated with P. aeruginosa LPS (10 or 100 ng/ml) with or without peptides for 24 hr after which supernatants were collected and TNFα assessed by ELISA.

[4] = test system: P. aeruginosa biofilms; conditions: P. aeruginosa biofilm
Protocol: (§1) Peptides and various conventional antibiotics were analyzed by checkerboard titration into microtiter trays using CLSI methods (Wiegand, I., K. Hilpert, and R. E. W. Hancock. 2008. Nature Protocols 3:163-175), bacteria added and, after overnight incubation at 37° C., the residual biofilm assessed by the crystal violet method mentioned in the body of the grant, with an A595 of 0.2 considered as 100% biofilm inhibition. The effects of the peptide in reducing the minimal biofilm inhibitory concentration (MBIC) of the antibiotic and vice versa were assessed using the Fractional Inhibitory Concentration (FIC) method whereby ΣFTC=FICA+FICB=(CA/MICA)+(CB/MICB), where MBICA and MBICB are the MBICs of peptide A and antibiotic B alone, respectively, and CA and CB (expressed in μg/ml) are the MICs of the drugs in combination. This conventional clinical microbiology assay is interpreted as follows

[5] = test system: A. baumannii biofilm; assay: checkerboard titration biofilm synergy (FIC); format: cell-based
Protocol: as §1

[6] = test system: K. pneumoniae biofilm; assay: checkerboard titration biofilm synergy (FIC); format: cell-based
Protocol: as §1

[7] = test system: Salmonella biofilm; assay: checkerboard titration biofilm synergy (FIC); format: cell-based
Protocol: as §1

[8] = test system: S. aureus biofilms; assay: checkerboard titration biofilm synergy (MBIC, FIC); format: cell-based
Protocol: as §1

[9] = test system: E. coli biofilms; assay: checkerboard titration biofilm synergy (MBIC, FIC); format: cell-based
Protocol: as §1

[10] = test system: Pseudomonas aeruginosa (Pa) biofilm; assay: static abiotic solid surface (microtiter, crystal violet) / Bioflux biofilm inhibition screen; format: cell-based
Protocol: FIG. 1. Identification of new anti-biofilm peptides active against P. aeruginosa using the microtiter plate screening method with crystal violet staining. […] As a control peptide 1037 was utilized [de la Fuente Nunez et al. 2011].
Methods of assessment of anti-biofilm activity—Biofilm formation was initially analyzed using a static abiotic solid surface assay as described elsewhere (de la Fuente-Nunez et al., 2012). Dilutions (1/100) of overnight cultures were incubated in BM2 biofilm-adjusted medium [62 mM potassium phosphate buffer (pH 7), 7 mM (NH4)2SO4, 2 mM MgSO4, 10 μM FeSO4, 0.4% (wt/vol) glucose, 0.5% (wt/vol) Casamino Acids], or a nutrient medium such as Luria Broth, in polypropylene microtiter plates (Falcon, United States) in the absence (control) or presence of peptide. Peptide was added at time zero (prior to adding the diluted, overnight cultures) in varying concentrations, and the decrease in biofilm formation was recorded at 22-46 h for most bacteria. Planktonic cells were removed, biofilm cells adhering to the side of the tubes were stained with crystal violet, and absorbance at 595 nm was measured using a microtiter plate reader (Bio-Tek Instruments Inc., United States). Some peptides were screened against two Gram negative organisms, P. aeruginosa and K. pneumoniae using a Bioflux apparatus (AutoMate Scientific, Berkeley, Calif.; http://www.autom8.com/bioflux_biofilm.html), which allows for the high-throughput, real-time analysis of biofilms.

[11] = test system: methicillin resistant S. aureus (Sa) biofilm; format: cell-based, Staphylococcus aureus; conditions: peptide 5 μg/ml
[12] = antibiotic in combination with peptide 1018
[13] = antibiotic in combination with peptide DJK5
[14] = in combination with peptide 1018
[15] = in combination with peptide DJK5
[16] = in the presence of peptide 1018
[17] = in the presence of peptide DJK5

## CC[C@H](C)[C@H](NC(=O)[C@H](CC(C)C)NC(=O)[C@H](CCCNC(=N)N)NC(=O)[C@@H](N)C(C)C)C(=O)N[C@@H](Cc1c[nH]c2ccccc12)C(=O)N[C@@H](C)C(=O)N[C@H](C(=O)N[C@@H](CCCNC(=N)N)C(=O)N[C@H](C(=O)N[C@@H](Cc1c[nH]c2ccccc12)C(=O)N[C@@H](CCCNC(=N)N)C(=O)N[C@@H](CCCNC(=N)N)C(N)=O)[C@@H](C)CC)C(C)C [HE4] (H-VRLIWAVRIWRR-NH2; N-terminus assumed)
[1]
  MCP-1 induction: clearly superior to peptide 1018
[2]
  synergy with poly(I:C) in MCP-1 production: showed synergy
[3]
  suppression of LPS-induced TNFα: strongly suppressed

## CC[C@H](C)[C@H](NC(=O)[C@@H](NC(=O)[C@H](CCCNC(=N)N)NC(=O)[C@H](C)NC(=O)[C@@H](NC(=O)[C@H](CCCNC(=N)N)NC(=O)[C@H](CCCCN)NC(=O)[C@H](Cc1ccccc1)NC(=O)[C@@H](N)CCCNC(=N)N)C(C)C)C(C)C)C(=O)N[C@@H](Cc1c[nH]c2ccccc12)C(N)=O [HE12] (H-RFKRVARVIW-NH2; N-terminus assumed)
[1]
  MCP-1 induction: clearly superior to peptide 1018
[2]
  synergy with poly(I:C) in MCP-1 production: showed synergy
[3]
  suppression of LPS-induced TNFα: strongly suppressed

## CC(C)(O/N=C(\C(=O)N[C@@H]1C(=O)N2C(C(=O)[O-])=C(C[n+]3ccccc3)CS[C@H]12)c1csc(N)n1)C(=O)O [Ceftazidime]
[4]; [12]
  FIC: 0.38
[4]; [13]
  FIC: 0.51 and 0.5
[4]; [14]
  Concentration of antibiotic at the FIC: 1.4 µg/mL
[4]; [15]
  Concentration of antibiotic at the FIC: 0.8 µg/mL
[5]; [12]
  FIC: 0.37
[5]; [13]
  FIC: 0.75
[5]; peptide DJK5
  Fold decrease in antibiotic MIC in the presence of peptide: 2X
[6]; [12]
  FIC: 0.75
[6]; [13]
  FIC: 0.89
[6]; peptide DJK5
  Fold decrease in antibiotic MIC in the presence of peptide: 16X
[7]; [12]
  FIC: 0.31
[7]; [13]
  FIC: 0.75
[7]; peptide DJK5
  Fold decrease in antibiotic MIC in the presence of peptide: 4X
[8]; [12]
  FIC: 0.16
[8]; [13]
  FIC: 0.375 and 0.38
[8]; antibiotic in combination with peptide DJK6
  FIC: 0.4
[8]; compound alone
  MBIC: 256 µg/mL
[8]; [14]
  concentration of antibiotic at FIC: 8-8 μg/ml
[8]; [15]
  concentration of antibiotic at FIC: 32 µg/mL
[8]; [16]
  Fold decrease in antibiotic concentration: 32X
[8]; [17]
  Fold decrease in antibiotic concentration / antibiotic MIC: 8X
[8]; in the presence of peptide DJK6
  Fold decrease in antibiotic concentration: 8
[9]; [12]
  FIC: 1
[9]; [13]
  FIC: 0.542 and 0.54
[9]; compound alone
  MBIC: 0.4 µg/mL
[9]; [14]
  concentration of antibiotic at FIC: 0.1 µg/mL
[9]; [15]
  concentration of antibiotic at FIC: 0.2 µg/mL
[9]; [16]
  Fold decrease in antibiotic concentration: 4X
[9]; [17]
  Fold decrease in antibiotic concentration / antibiotic MIC: 2X

## CC[C@H](C)[C@H](NC(=O)[C@H](CCCNC(=N)N)NC(=O)[C@H](C)NC(=O)[C@@H](NC(=O)[C@H](CC(C)C)NC(=O)[C@H](CCCNC(=N)N)NC(=O)[C@H](CCCNC(=N)N)NC(=O)[C@@H](NC(=O)[C@@H](NC(=O)[C@H](CCCNC(=N)N)NC(=O)[C@@H](N)CCCCN)[C@@H](C)CC)C(C)C)C(C)C)C(=O)N[C@H](C(N)=O)C(C)C [Peptide 1017] (H-KRIVRRLVARIV-NH2; N-terminus assumed)
[10]; peptide 10 μg/ml
  % Biofilm Inhibition Pa: 26%
[11]
  % Biofilm Inhibition Sa: 21%

## CC[C@H](C)[C@H](N)C(=O)N[C@@H](CC(C)C)C(=O)N1CCC[C@H]1C(=O)N[C@@H](Cc1c[nH]c2ccccc12)C(=O)N[C@@H](CCCCN)C(=O)N[C@@H](Cc1c[nH]c2ccccc12)C(=O)N1CCC[C@H]1C(=O)N[C@@H](Cc1c[nH]c2ccccc12)C(=O)N[C@@H](Cc1c[nH]c2ccccc12)C(=O)N1CCC[C@H]1C(=O)N[C@@H](Cc1c[nH]c2ccccc12)C(=O)N[C@@H](CCCNC(=N)N)C(=O)N[C@@H](CCCNC(=N)N)C(N)=O [Indolicidin, reference compound]
[10]; Pa) biofilm, 10 μg/ml
  % Biofilm Inhibition Pa: 29%
[11]
  % Biofilm Inhibition Sa: 48%

## CC[C@H](C)[C@H](N)C(=O)N[C@@H](CC(C)C)C(=O)N[C@@H](CCCCN)C(=O)N[C@@H](CCCCN)C(=O)N[C@@H](Cc1c[nH]c2ccccc12)C(=O)N1CCC[C@H]1C(=O)N[C@@H](Cc1c[nH]c2ccccc12)C(=O)N[C@@H](Cc1c[nH]c2ccccc12)C(=O)N1CCC[C@H]1C(=O)N[C@@H](Cc1c[nH]c2ccccc12)C(=O)N[C@@H](CCCNC(=N)N)C(=O)N[C@@H](CCCNC(=N)N)C(=O)N[C@@H](CCCCN)C(N)=O [Peptide 11CN] (H-ILKKWPWWPWRRK-NH2; N-terminus assumed)
[11]
  % Biofilm Inhibition Sa: 32%
